Test results published in patent US12533339B2, “Small molecule antiviral drug treatment for human papillomavirus infections” (THE TRUSTEES OF INDIANA UNIVERSITY, priority 2020, dated 2026).

Legend:
E6 WT/E6AP [1] = molecular target: T1, E6 WT/E6AP (Human papillomavirus type 16, UniProt P03126); assay: biochemical; type: binding; conditions: WT 16E6; for inhibition at 10 µM: 10 μM compound; for inhibition at 100 µM: 100 μM compound
E6C51S/E6AP = E6C51S/E6AP (Human papillomavirus type 16, UniProt P03126, C58S); assay: E6/E6AP binding assay (amylose-bound MBP-16E6, E6AP-BAP activity), C51S 16E6; design: species or system HPV-16; conditions: for % Inhibition @ 10 μM E6C51S/E6AP: 10 μM compound; for % Inhibition @ 100 μM E6C51S/E6AP: 100 μM compound
E6 WT/E6AP [2] = molecular target: T1, E6 WT/E6AP; assay: biochemical; type: binding; conditions: for Emax: 24 h, read-out: FP maximal inhibition (max %) E6 WT/E6AP; for IC50: FP IC50 at 24 h (μM) E6 WT/E6AP

E6C51S/E6AP, sequence (P03126 whole entry C58S, looked up): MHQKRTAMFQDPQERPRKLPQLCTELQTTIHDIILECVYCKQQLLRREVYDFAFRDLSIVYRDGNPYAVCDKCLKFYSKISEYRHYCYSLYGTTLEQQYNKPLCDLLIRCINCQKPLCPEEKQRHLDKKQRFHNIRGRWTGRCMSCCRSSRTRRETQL
T1 sequence (P03126 8-158): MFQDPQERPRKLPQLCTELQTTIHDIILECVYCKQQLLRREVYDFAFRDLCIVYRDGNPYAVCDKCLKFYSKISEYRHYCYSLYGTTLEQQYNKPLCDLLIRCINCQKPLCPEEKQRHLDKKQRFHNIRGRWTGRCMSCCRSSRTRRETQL

Structure (SMILES) | inhibition at 10 µM (E6 WT/E6AP [1]) [%] | inhibition at 100 µM (E6 WT/E6AP [1]) [%] | % Inhibition @ 10 μM E6C51S/E6AP (E6C51S/E6AP) [%] | % Inhibition @ 100 μM E6C51S/E6AP (E6C51S/E6AP) [%] | Emax (E6 WT/E6AP [2]) [%] | IC50 (E6 WT/E6AP [2]) [µM] | FP maximal inhibition (max %) E6 WT/E6AP (E6 WT/E6AP [2]; at 24 h)
Cc1ccccc1C1c2ccsc2CCN1C(C)C(=O)N1CCCN(C(=O)CCl)CC1 (centres unmarked) [EIN-117, 1-(4-(2-chloroacetyl)-1,4-diazepan-1-yl)-2-(4-(o-tolyl)-6,7-dihydrothieno[3,2-c]pyridin-5(4H)-yl)propan-1-one] | 17 ± 1 | 33 ± 7 | – | – | – | – | –
Cc1ccccc1C1c2ccsc2CCN1CC(=O)N1CCN(C(=O)CCl)C(C)C1 (centres unmarked) [EIN-118, 2-chloro-1-(2-methyl-4-(2-(4-(o-tolyl)-6,7-dihydrothieno[3,2-c]pyridin-5(4H)-yl)acetyl)piperazin-1-yl)ethan-1-one] | 49 ± 5 | 98 ± 2 | 12 ± 11 | 79 ± 5 | – | – | –
O=C(CCl)N1CCCN(C(=O)CN2CCc3sccc3C2c2cccc(F)c2)CC1 (centres unmarked) [EIN-119, 2-chloro-1-(4-(2-(4-(3-fluorophenyl)-6,7-dihydrothieno[3,2-c]pyridin-5(4H)-yl)acetyl)-1,4-diazepan-1-yl)ethan-1-one] | 33 ± 6 | 61 ± 1 | 9 ± 7 | 34 ± 7 | – | – | –
CC1CN(C(=O)CN2CCc3sccc3C2c2cccc(F)c2)CCN1C(=O)CCl (centres unmarked) [EIN-120, 2-chloro-1-(4-(2-(4-(3-fluorophenyl)-6,7-dihydrothieno[3,2-c]pyridin-5(4H)-yl)acetyl)-2-methylpiperazin-1-yl)ethan-1-one] | 18 ± 5 | 63 ± 1 | 12 ± 5 | 34 ± 2 | – | – | –
COc1ccc(C2c3ccsc3CCN2CC(=O)N2CCN(C(=O)CCl)C(C)C2)cc1 (centres unmarked) [EIN-121, 2-chloro-1-(4-(2-(4-(4-methoxyphenyl)-6,7-dihydrothieno[3,2-c]pyridin-5(4H)-yl)acetyl)-2-methylpiperazin-1-yl)ethan-1-one] | 24 ± 2 | 52 ± 1 | – | – | – | – | –
Cc1nc(N2CCN(C(=O)CCl)CC2)c2c3c(sc2n1)CCCC3 [EIN-123, 2-chloro-1-(4-(2-methyl-5,6,7,8-tetrahydrobenzo[4,5]thieno[2,3-d]pyrimidin-4-yl)piperazin-1-yl)ethan-1-one] | 58 ± 12 | 114 ± 11 | 44 ± 10 | 90 ± 6 | – | – | –
CCCCc1nc(N2CCN(C(=O)CCl)CC2)c2c3c(sc2n1)CC(C)CC3 (centres unmarked) [EIN-124, 1-(4-(2-butyl-7-methyl-5,6,7,8-tetrahydrobenzo[4,5]thieno[2,3-d]pyrimidin-4-yl)piperazin-1-yl)-2-chloroethan-1-one] | 71 ± 13 | 113 ± 13 | 49 ± 11 | 90 ± 5 | – | – | –
CCCCc1nc(N2CCN(C(=O)CCl)CC2)c2c3c(sc2n1)CCCC3 [EIN-126, 1-(4-(2-butyl-5,6,7,8-tetrahydrobenzo[4,5]thieno[2,3-d]pyrimidin-4-yl)piperazin-1-yl)-2-chloroethan-1-one] | 18 ± 5 | 63 ± 1 | 12 ± 5 | 34 ± 2 | – | – | –
O=C(CCl)N1CCN(c2nc(Cc3ccccc3)nc3sc4c(c23)CCCC4)CC1 [EIN-127, 1-(4-(2-benzyl-5,6,7,8-tetrahydrobenzo[4,5]thieno[2,3-d]pyrimidin-4-yl)piperazin-1-yl)-2-chloroethan-1-one] | 57 ± 14 | 106 ± 11 | 41 ± 5 | 79 ± 4 | – | – | –
Cc1sc2nc(CCc3ccccc3)nc(N3CCN(C(=O)CCl)CC3)c2c1C [EIN-128, 2-chloro-1-(4-(5,6-dimethyl-2-phenethylthieno[2,3-d]pyrimidin-4-yl)piperazin-1-yl)ethan-1-one] | 47 ± 14 | 106 ± 11 | 19 ± 8 | 60 ± 3 | – | – | –
Cc1sc2nc(C3CC3)nc(N3CCN(C(=O)CCl)CC3)c2c1C [EIN-129, 2-chloro-1-(4-(2-cyclopropyl-5,6-dimethylthieno[2,3-d]pyrimidin-4-yl)piperazin-1-yl)ethan-1-one] | 81 ± 16 | 119 ± 13 | 57 ± 12 | 103 ± 5 | – | – | –
CCCc1nc(N2CCN(C(=O)CCl)CC2)c2c3c(sc2n1)CC(C)CC3 (centres unmarked) [EIN-130, 2-chloro-1-(4-(7-methyl-2-propyl-5,6,7,8-tetrahydrobenzo[4,5]thieno[2,3-d]pyrimidin-4-yl)piperazin-1-yl)ethan-1-one] | 46 ± 9 | 100 ± 9 | 52 ± 12 | 85 ± 6 | – | – | –
CCc1nc(N2CCN(C(=O)CCl)CC2)c2c3c(sc2n1)CCCC3 [EIN-131, 2-chloro-1-(4-(2-ethyl-5,6,7,8-tetrahydrobenzo[4,5]thieno[2,3-d]pyrimidin-4-yl)piperazin-1-yl)ethan-1-one] | 24 ± 3 | 65 ± 3 | – | – | – | – | –
C=CC(=O)N1CCN(c2nc(N(C)Cc3ccccc3)nc3sc4c(c23)CCCC4)CC1 [EIN-139, 1-(4-(2-(benzyl(methyl)amino)-5,6,7,8-tetrahydrobenzo[4,5]thieno[2,3-d]pyrimidin-4-yl)piperazin-1-yl)prop-2-en-1-one] | 13 ± 7 | 21 ± 4 | 0 | 6 ± 3 | 8 | 33.1 ± 1.3 | –
C=CC(=O)N1CCN(c2nc(N(C)Cc3ccccc3F)nc3sc4c(c23)CCCC4)CC1 [EIN-140, 1-(4-(2-((2-fluorobenzyl)(methyl)amino)-5,6,7,8-tetrahydrobenzo[4,5]thieno[2,3-d]pyrimidin-4-yl)piperazin-1-yl)prop-2-en-1-one] | 6 ± 6 | 17 ± 4 | 0 | 0 | – | – | –
C=CC(=O)N1CCN(c2nc(N(C)Cc3cccc(F)c3)nc3sc4c(c23)CCCC4)CC1 [EIN-141, 1-(4-(2-((3-fluorobenzyl)(methyl)amino)-5,6,7,8-tetrahydrobenzo[4,5]thieno[2,3-d]pyrimidin-4-yl)piperazin-1-yl)prop-2-en-1-one] | 0 | 18 ± 5 | 0 | 0 | – | – | –
C=CC(=O)N1CCN(c2nc(N(C)Cc3ccc(F)cc3)nc3sc4c(c23)CCCC4)CC1 [EIN-142, 1-(4-(2-((4-fluorobenzyl)(methyl)amino)-5,6,7,8-tetrahydrobenzo[4,5]thieno[2,3-d]pyrimidin-4-yl)piperazin-1-yl)prop-2-en-1-one] | 17 ± 4 | 28 ± 3 | 0 | 0 | – | – | –
C=CC(=O)N1CCN(c2nc(CCc3cccc(OC)c3)nc3sc4c(c23)CCCC4)CC1 [EIN-151, 1-(4-(2-(3-methoxyphenethyl)-5,6,7,8-tetrahydrobenzo[4,5]thieno[2,3-d]pyrimidin-4-yl)piperazin-1-yl)prop-2-en-1-one] | – | – | – | – | – | – | (max 71%)
C=CC(=O)N1CCN(c2nc(CCc3ccc(F)cc3)nc3ccccc23)CC1 [EIN-153, 1-(4-(2-(4-fluorophenethyl)quinazolin-4-yl)piperazin-1-yl)prop-2-en-1-one] | – | – | – | – | 100 | 27.7 ± 1.3 | –
C=CC(=O)N1CCN(c2nc(CCc3cccc(F)c3)nc3ccccc23)CC1 [EIN-158, 1-(4-(2-(3-fluorophenethyl)quinazolin-4-yl)piperazin-1-yl)prop-2-en-1-one] | – | – | – | – | 100 | 52.8 ± 2.8 | –
C=CC(=O)N1CCN(c2nc(-c3cccc(OC)c3)nc3ccccc23)CC1 [EIN-159, 1-(4-(2-(3-methoxyphenyl)quinazolin-4-yl)piperazin-1-yl)prop-2-en-1-one] | – | – | – | – | 91 | 14.5 ± 1.3 | –
C=CC(=O)N1CCN(c2nc(-c3ccccc3OC)nc3ccccc23)CC1 [EIN-160, 1-(4-(2-(2-methoxyphenyl)quinazolin-4-yl)piperazin-1-yl)prop-2-en-1-one] | – | – | – | – | 100 | 128 ± 2.3 | –
C=CC(=O)N1CCN(c2nc(-c3ccc(OC)cc3)nc3ccccc23)CC1 [EIN-161, 1-(4-(2-(4-methoxyphenyl)quinazolin-4-yl)piperazin-1-yl)prop-2-en-1-one] | – | – | – | – | 91 | 13.3 ± 1.9 | –
C=CC(=O)N1CCN(c2nc(-c3ccc(OC(F)(F)F)cc3)nc3ccccc23)CC1 [EIN-162, 1-(4-(2-(4-(trifluoroniethoxy)phenyl)quinazolin-4-yl)piperazin-1-yl)prop-2-en-1-one] | – | – | – | – | 100 | 105 ± 13.7 | –
C=CC(=O)N1CCN(c2nc(-c3ccc(OC4CC4)cc3)nc3ccccc23)CC1 [EIN-163, 1-(4-(2-(4-cyclopropoxyphenyl)quinazolin-4-yl)piperazin-1-yl)prop-2-en-1-one] | – | – | – | – | 100 | 41.6 ± 2.8 | –
C=CC(=O)N1CCN(c2nc(-c3ccc(OC)cc3F)nc3ccccc23)CC1 [EIN-164, 1-(4-(2-(2-fluoro-4-methoxyphenyl)quinazolin-4-yl)piperazin-1-yl)prop-2-en-1-one] | – | – | – | – | 100 | 22.9 ± 1.3 | –
C=CC(=O)N1CCN(c2nc(-c3ccc(OC)cc3)nc3cccnc23)CC1 [EIN-165, 1-(4-(2-(4-methoxyphenyl)pyrido[3,2-d]pyrimidin-4-yl)piperazin-1-yl)prop-2-en-1-one] | – | – | – | – | 100 | 38.2 ± 2.1 | –
